Several values for one entry are separate records, joined by “and”; a condition that tells them apart may be missing. Equal entries are not always repeated.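 96-well plates; 48 h exposure; 5 concentrations. Endpoints by linear interpolation between flanking doses. Not reached: highest tested concentration assigned. The concentration for 50% growth inhibition is given as GI50. TGI: total growth inhibition.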
Legend:
Assay in all cases: growth of human tumour cells (NCI), 48 h
MOLT-4 leukemia = test system: MOLT-4 leukemia
OVCAR-5 ovarian = test system: OVCAR-5 ovarian
NCI/ADR-RES ovarian = test system: NCI/ADR-RES ovarian
HL-60(TB) leukemia = test system: HL-60(TB) leukemia

Structure (SMILES) | TGI (MOLT-4 leukemia) | TGI (OVCAR-5 ovarian) | TGI (NCI/ADR-RES ovarian) | TGI (HL-60(TB) leukemia) | GI50 (OVCAR-5 ovarian) | GI50 (NCI/ADR-RES ovarian)
CCCCC1=C(C(=O)N2CCOCC2)C2(OCCO2)C1Cl (configuration not stated) | > 100 µM | 45.5 µM | > 100 µM | > 100 µM | – | –
CC[C@@]1(O)C(=O)OCc2c1cc1n(c2=O)Cc2c-1nc1ccccc1c2C=Nc1ccc(N[C@@H]2c3cc4c(cc3[C@@H](c3cc(OC)c(O)c(OC)c3)[C@H]3C(=O)OC[C@@H]32)OCO4)cc1 | > 100 µM | – | – | > 100 µM | 0.545 µM and 0.141 µM | 0.0449 µM and < 0.01 µM
C=C[C@@]1(C)CC(=O)[C@]2(O)[C@@]3(C)[C@@H](OC(C)=O)CCC(C)(C)[C@@H]3[C@H](O)[C@H](OC(C)=O)[C@@]2(C)O1 | > 100 µM | > 100 µM | > 100 µM | – | – | –
C(=C\c1ccccc1)/Cn1nc(-c2ccccc2)nc1-c1cnccn1 | > 100 µM | > 100 µM | – | > 100 µM | – | –
COC(=O)/N=[N+](\[O-])C(c1ccc(Cl)cc1)c1ccc(Cl)cc1 | > 100 µM | > 100 µM | > 100 µM | 97.3 µM | – | –
COc1ccc(-c2cc(-c3ccccc3)c3c(n2)-c2ccccc2NC(=O)C3)cc1 | – | > 100 µM | > 100 µM | > 100 µM | – | –
C=CCN1C(=O)/C(=C/c2ccccc2)N=C1SC/C=C/C | – | – | > 100 µM | – | – | –
CCOC(=O)CCN1C(=O)c2ccc(NC(=O)C(=O)O)cc2S1(=O)=O | > 100 µM | > 100 µM | > 100 µM | > 100 µM | – | –
COc1ccccc1/[N+]([O-])=C/c1ccccc1OC(=S)S | > 100 µM | > 100 µM | > 100 µM | 74.5 µM | – | –
N/C(=N\Nc1cccc(Cl)c1)c1cccnc1 | > 100 µM | > 100 µM | > 100 µM | > 66.9 µM | – | –
CCCC[P+](CCCC)(CCCC)C(C(=O)OC)C(C(=O)OC)=C1SC(C(=O)OC)=C(C(=O)OC)S1 (configuration not stated) | > 100 µM | > 100 µM | > 100 µM | – | – | –
CC1=NN(c2cccc(Cl)c2)C(=N/c2nc3ccccc3s2)/C1=C\c1ccccc1O | 87.4 µM | > 100 µM | 63.7 µM | 80.6 µM | – | –
COP(=N[Si](C)(C)C)(OC)OC | > 100 µM | > 100 µM | > 100 µM | > 100 µM | – | –
c1ccc2c(c1)Sc1ccccc1N2CCCN1c2ccccc2Sc2ccccc21 | > 100 µM | > 100 µM | > 100 µM | – | – | –
c1ccc2nc3c(nc2c1)sc1nc2ccccc2n13 | > 100 µM | > 100 µM | > 100 µM | > 100 µM | – | –
COC1/C=C/C(C)C(C(C)C(OC)C(C)CCC(=O)C(C)C(CC(=O)O)OC)OC(=O)/C=C/C=C(\C)CC(OC)C(OC)C2=CC(=O)O[C@@H](C(C)C(OC)CC(OC)/C=C/C(C)C(O)C1)[C@H]2O (some centres not stated) | > 1.07 µM | > 1.07 µM | 0.47 µM | 0.074 µM | – | –
Cc1nc2ccc(S(=O)(=O)Nc3ccccn3)cc2c(=O)n1NS(=O)(=O)c1ccccn1 | > 100 µM | > 100 µM | > 100 µM | > 100 µM | – | –
N#Cc1c(Cl)cccc1Oc1ccc(S(=O)(=O)/N=C(\NO)Nc2ccc(Cl)cc2)cc1 | 44.1 µM | 34.9 µM | 48 µM | 37.8 µM | – | –
CCOc1cc(NC(C)=O)ccc1C(=O)NN1C(=O)C(Cl)C1c1ccc(O)c(OC)c1 (configuration not stated) | 19 µM | 33.9 µM | 57.4 µM | 38.3 µM | – | –

Structure (SMILES) | TGI (MOLT-4 leukemia) | TGI (OVCAR-5 ovarian) | TGI (NCI/ADR-RES ovarian) | TGI (HL-60(TB) leukemia) | GI50 (OVCAR-5 ovarian) | GI50 (NCI/ADR-RES ovarian)
CC(C)/C(Cl)=N/OC(NC(=O)Nc1ccc(Cl)c(Cl)c1)(C(F)(F)F)C(F)(F)F | 12 µM | 38.4 µM | 31.7 µM | 6.39 µM | – | –
O=C1CSC2(CC(/C=C/c3cccc(Br)c3)=NN2c2cccc(S(=O)(=O)O)c2)N1c1nc2ccccc2s1 (configuration not stated) | > 100 µM | > 100 µM | > 100 µM | – | – | –
Cc1ccc(/C(O)=C/c2nc3ccccc3nc2NC23CC4CC(CC(C4)C2)C3)cc1 | > 10 µM | > 10 µM | > 10 µM | > 10 µM | – | –
O=c1oc2ccccc2cc1-c1nc2ccccc2c(=O)[nH]1 | > 100 µM | > 100 µM | > 100 µM | > 100 µM | – | –
Clc1ccccc1-c1nn2c(CCCCCCCCc3nnc4sc(-c5ccccc5Cl)nn34)nnc2s1 | > 100 µM | > 100 µM | > 100 µM | – | – | –
CCCCn1c(C)c(C)c2c1NN=C(C#N)S2(=O)=O | > 100 µM | > 100 µM | > 100 µM | – | – | –
CCOC(=O)Nn1cnnc1Cc1ccccc1 | > 100 µM | > 100 µM | > 100 µM | – | – | –
N#Cc1cccc(Nc2ccccc2SSc2ccccc2Nc2cccc(C#N)c2)c1 | 21.4 µM | > 21.5 µM | 19.7 µM | 14.8 µM | – | –
O=c1[nH]nc(Cc2ccccc2)n1N=C1CCCCC1 | > 100 µM | > 100 µM | > 100 µM | > 100 µM | – | –
O=C(/C=C/c1ccsc1)c1cccs1 | > 10 µM | > 100 µM | 44.9 µM | – | – | –
COc1ccc(C[C@H]2NC[C@H](OC(C)=O)[C@H]2OC(C)=O)cc1 | 1.98 µM | 0.679 µM | 0.788 µM | 0.326 µM | – | –
C[C@@H]1C(=O)O[C@@H]2C[C@@]1(C)[C@@H]1C(=O)C3(O)OC14C2(C)OC(=O)[C@@]4(O)CCC1C3C(O)C=C2CC=CC(=O)[C@@]21C (some centres not stated) | 57.1 µM | 67.9 µM | > 100 µM | 40.8 µM | – | –
CC(=O)O[C@H]1CC[C@@]2(C)C(=CC[C@H]3[C@@H]4C[C@H](N5CCN(C)CC5)[C@H](OC(C)=O)[C@@]4(C)CC[C@@H]32)C1 | 16.8 µM | 76.9 µM | 44.6 µM | 6.9 µM | – | –
Cc1ccc([N+](=O)[O-])cc1S(=O)(=O)Nc1ccc(C2=NOC(c3ccccc3)C2)cc1 (configuration not stated) | 9.23 µM | > 100 µM | 67.3 µM | 25.2 µM | – | –
CNc1nc2c(C)ccc3nc(N(C)C)nc-3c2n1C | > 10 µM | > 10 µM | > 10 µM | – | – | –
O=c1ccc(-c2ccc(-n3ccnc3)cc2)nn1CCO | > 100 µM | > 100 µM | – | > 100 µM | – | –
O=C1c2scc(-c3ccc(F)cc3)c2-n2cccc21 | > 100 µM | > 100 µM | > 100 µM | – | – | –
COc1ccc2c(c1)nc1n2C(c2c(F)cccc2F)SC1 (configuration not stated) | > 100 µM | > 100 µM | > 100 µM | > 100 µM | – | –
